Results published in the supplement of paper PMC10307832.

Key:
Experiment in all cases: relative viability (nuclei count vs DMSO), 5 days (fraction); higher = more cells survive
EPLC-272H = test system: EPLC-272H
Procedure, shortened: (§1)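 Nuclei were stained with Hoechst during a one-step fixation (final 0.05% Triton X-100, 1% formaldehyde, 1 ug/ml Hoechst) carried out 5 days after dosing, then counted on 4× images. The cells, lung cancer lines in 1536-well plates, had been dosed by pin tool the day after seeding with one drug alone or a fixed anchor-drug dose plus five library-drug doses (not always all listed) in √10 steps. Relative viability is the nuclei count in treated wells divided by that in vehicle wells, and each value is the median of duplicate plates.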

NCI-H2405 = test system: NCI-H2405
Procedure, shortened: as §1

NCI-H2009 = test system: NCI-H2009
Procedure, shortened: as §1

HCC-44 = test system: HCC-44
Procedure, shortened: as §1

NCI-H3122 = test system: NCI-H3122
Procedure, shortened: as §1

NCI-H2228 = test system: NCI-H2228
Procedure, shortened: as §1

NCI-H2085 = test system: NCI-H2085
Procedure, shortened: as §1

NCI-H2347 = test system: NCI-H2347
Procedure, shortened: as §1

LCLC-103H = test system: LCLC-103H
Procedure, shortened: as §1

PC-14 = test system: PC-14
Procedure, shortened: as §1

HCC-827 = test system: HCC-827
Procedure, shortened: as §1

COR-L23 = test system: COR-L23
Procedure, shortened: as §1

SW 1573 = test system: SW 1573
Procedure, shortened: as §1

NCI-H1355 = test system: NCI-H1355
Procedure, shortened: as §1

NCI-H1734 = test system: NCI-H1734
Procedure, shortened: as §1

NCI-H2023 = test system: NCI-H2023
Procedure, shortened: as §1

HCC-15 = test system: HCC-15
Procedure, shortened: as §1

ChaGo-K-1 = test system: ChaGo-K-1
Procedure, shortened: as §1

HCC-366 = test system: HCC-366
Procedure, shortened: as §1

ABC-1 = test system: ABC-1
Procedure, shortened: as §1

## CCNC(=O)c1noc(-c2cc(C(C)C)c(O)cc2O)c1-c1ccc(CN2CCOCC2)cc1 [Luminespib] + CC(C)C[C@H](NC(=O)[C@H](Cc1ccccc1)NC(=O)c1cnccn1)B(O)O [Bortezomib] (partner 0.002 µM)
EPLC-272H; first compound 0.006325 µM
  relative viability: 0.83
EPLC-272H; first compound 0.02 µM
  relative viability: 0.678
EPLC-272H; first compound 0.06325 µM
  relative viability: 0.913
EPLC-272H; first compound 0.2 µM
  relative viability: 0.293
NCI-H2405; first compound 0.002 µM
  relative viability: 0.987
NCI-H2405; first compound 0.006325 µM
  relative viability: 0.533
NCI-H2405; first compound 0.02 µM
  relative viability: 0.835
NCI-H2405; first compound 0.06325 µM
  relative viability: 0.9
NCI-H2405; first compound 0.2 µM
  relative viability: 0.358
NCI-H2009; first compound 0.002 µM
  relative viability: 1.16
NCI-H2009; first compound 0.006325 µM
  relative viability: 0.841
NCI-H2009; first compound 0.02 µM
  relative viability: 0.956
NCI-H2009; first compound 0.06325 µM
  relative viability: 0.0583
NCI-H2009; first compound 0.2 µM
  relative viability: 0.0609
HCC-44; first compound 0.002 µM
  relative viability: 0.895
HCC-44; first compound 0.006325 µM
  relative viability: 0.881
HCC-44; first compound 0.02 µM
  relative viability: 1.09
HCC-44; first compound 0.06325 µM
  relative viability: 0.139
HCC-44; first compound 0.2 µM
  relative viability: 0.145
NCI-H3122; first compound 0.002 µM
  relative viability: 1.01
NCI-H3122; first compound 0.006325 µM
  relative viability: 1.01
NCI-H3122; first compound 0.02 µM
  relative viability: 1.05
NCI-H3122; first compound 0.06325 µM
  relative viability: 0.165
NCI-H3122; first compound 0.2 µM
  relative viability: 0.199
NCI-H2228; first compound 0.002 µM
  relative viability: 0.985
NCI-H2228; first compound 0.006325 µM
  relative viability: 0.952
NCI-H2228; first compound 0.02 µM
  relative viability: 0.166
NCI-H2228; first compound 0.06325 µM
  relative viability: 0.196
NCI-H2228; first compound 0.2 µM
  relative viability: 0.184
NCI-H2085; first compound 0.002 µM
  relative viability: 0.979
NCI-H2085; first compound 0.006325 µM
  relative viability: 0.94
NCI-H2085; first compound 0.02 µM
  relative viability: 0.818
NCI-H2085; first compound 0.06325 µM
  relative viability: 0.509
NCI-H2085; first compound 0.2 µM
  relative viability: 0.344
NCI-H2347; first compound 0.002 µM
  relative viability: 0.947
NCI-H2347; first compound 0.006325 µM
  relative viability: 0.601
NCI-H2347; first compound 0.02 µM
  relative viability: 0.737
NCI-H2347; first compound 0.06325 µM
  relative viability: 0.587
NCI-H2347; first compound 0.2 µM
  relative viability: 0.36
LCLC-103H; first compound 0.002 µM
  relative viability: 1.07
LCLC-103H; first compound 0.006325 µM
  relative viability: 1.01
LCLC-103H; first compound 0.02 µM
  relative viability: 0.931
LCLC-103H; first compound 0.06325 µM
  relative viability: 1
LCLC-103H; first compound 0.2 µM
  relative viability: 0.676
PC-14; first compound 0.002 µM
  relative viability: 0.956
PC-14; first compound 0.006325 µM
  relative viability: 0.788
PC-14; first compound 0.02 µM
  relative viability: 0.988
PC-14; first compound 0.06325 µM
  relative viability: 0.314
PC-14; first compound 0.2 µM
  relative viability: 0.0725
HCC-827; first compound 0.002 µM
  relative viability: 1.04
HCC-827; first compound 0.006325 µM
  relative viability: 0.999
HCC-827; first compound 0.02 µM
  relative viability: 1.11
HCC-827; first compound 0.06325 µM
  relative viability: 1.22
HCC-827; first compound 0.2 µM
  relative viability: 0.66
COR-L23; first compound 0.002 µM
  relative viability: 1.02
COR-L23; first compound 0.006325 µM
  relative viability: 0.85
COR-L23; first compound 0.02 µM
  relative viability: 0.718
COR-L23; first compound 0.06325 µM
  relative viability: 0.079
COR-L23; first compound 0.2 µM
  relative viability: 0.079
SW 1573; first compound 0.002 µM
  relative viability: 1.07
SW 1573; first compound 0.006325 µM
  relative viability: 0.941
SW 1573; first compound 0.02 µM
  relative viability: 0.96
SW 1573; first compound 0.06325 µM
  relative viability: 0.117
SW 1573; first compound 0.2 µM
  relative viability: 0.114
NCI-H1355; first compound 0.002 µM
  relative viability: 1.14
NCI-H1355; first compound 0.006325 µM
  relative viability: 1.12
NCI-H1355; first compound 0.02 µM
  relative viability: 0.571
NCI-H1355; first compound 0.06325 µM
  relative viability: 1
NCI-H1355; first compound 0.2 µM
  relative viability: 0.182
NCI-H1734; first compound 0.002 µM
  relative viability: 1.06
NCI-H1734; first compound 0.006325 µM
  relative viability: 0.823
NCI-H1734; first compound 0.02 µM
  relative viability: 0.698
NCI-H1734; first compound 0.06325 µM
  relative viability: 0.118
NCI-H1734; first compound 0.2 µM
  relative viability: 0.117
NCI-H2023; first compound 0.002 µM
  relative viability: 1.04
NCI-H2023; first compound 0.006325 µM
  relative viability: 0.958
NCI-H2023; first compound 0.02 µM
  relative viability: 0.29
NCI-H2023; first compound 0.06325 µM
  relative viability: 0.069
NCI-H2023; first compound 0.2 µM
  relative viability: 0.0759
HCC-15; first compound 0.002 µM
  relative viability: 1.03
HCC-15; first compound 0.006325 µM
  relative viability: 0.906
HCC-15; first compound 0.02 µM
  relative viability: 1.11
HCC-15; first compound 0.06325 µM
  relative viability: 0.517
HCC-15; first compound 0.2 µM
  relative viability: 0.152
ChaGo-K-1; first compound 0.002 µM
  relative viability: 1.11
ChaGo-K-1; first compound 0.02 µM
  relative viability: 0.998
ChaGo-K-1; first compound 0.06325 µM
  relative viability: 0.528
ChaGo-K-1; first compound 0.2 µM
  relative viability: 0.294
HCC-366; first compound 0.002 µM
  relative viability: 1.01
HCC-366; first compound 0.006325 µM
  relative viability: 1.01
HCC-366; first compound 0.02 µM
  relative viability: 0.474
HCC-366; first compound 0.06325 µM
  relative viability: 0.025
HCC-366; first compound 0.2 µM
  relative viability: 0.0174
ABC-1; first compound 0.002 µM
  relative viability: 0.258
ABC-1; first compound 0.006325 µM
  relative viability: 0.315
ABC-1; first compound 0.02 µM
  relative viability: 0.238
ABC-1; first compound 0.06325 µM
  relative viability: 0.267
ABC-1; first compound 0.2 µM
  relative viability: 0.255
